The values that follow come from US6127357A, “N-((phenyl, benzodioxinyl or N-heteroarylpiperazinyl)alkyl)-N-(N-heteroaryl)substituted carboxamides” (John Wyeth & Brother, Ltd., priority 1991, dated 2000).

Assay [1] deals with T1, 5-HT1A receptor (Rattus norvegicus, UniProt P19327).
T1 construct: rat hippocampal membrane homogenate; from tissue; host or cells: rat hippocampus membrane homogenate
T1 sequence (P19327 1-422): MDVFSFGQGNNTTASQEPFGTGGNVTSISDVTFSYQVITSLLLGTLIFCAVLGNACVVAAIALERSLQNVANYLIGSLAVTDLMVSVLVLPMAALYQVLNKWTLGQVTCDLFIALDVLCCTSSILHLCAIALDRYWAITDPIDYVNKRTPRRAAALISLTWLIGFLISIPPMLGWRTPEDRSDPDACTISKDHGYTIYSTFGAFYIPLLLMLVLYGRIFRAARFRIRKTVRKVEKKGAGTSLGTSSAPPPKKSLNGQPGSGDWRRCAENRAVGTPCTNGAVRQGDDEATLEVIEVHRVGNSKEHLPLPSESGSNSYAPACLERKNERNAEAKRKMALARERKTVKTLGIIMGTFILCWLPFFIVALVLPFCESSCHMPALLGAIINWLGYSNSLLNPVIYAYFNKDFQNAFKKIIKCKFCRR
The experiment in a line: 5-HT1A receptor binding activity in rat hippocampal membrane homogenate. Here is the method: The compounds of the invention were tested for 5-HT1A receptor binding activity in rat hippocampal membrane homogenate by the method of B S Alexander and M D Wood, J Pharm Pharmacol, 1988, 40, 888-891.

For assay [2], the target named is T2, 5-HT1A receptor (Cavia porcellus, UniProt A0A286Y074).
T2 construct: guinea-pig ileum in vitro; from tissue; host or cells: guinea-pig ileum
T2 sequence (A0A286Y074 1-421): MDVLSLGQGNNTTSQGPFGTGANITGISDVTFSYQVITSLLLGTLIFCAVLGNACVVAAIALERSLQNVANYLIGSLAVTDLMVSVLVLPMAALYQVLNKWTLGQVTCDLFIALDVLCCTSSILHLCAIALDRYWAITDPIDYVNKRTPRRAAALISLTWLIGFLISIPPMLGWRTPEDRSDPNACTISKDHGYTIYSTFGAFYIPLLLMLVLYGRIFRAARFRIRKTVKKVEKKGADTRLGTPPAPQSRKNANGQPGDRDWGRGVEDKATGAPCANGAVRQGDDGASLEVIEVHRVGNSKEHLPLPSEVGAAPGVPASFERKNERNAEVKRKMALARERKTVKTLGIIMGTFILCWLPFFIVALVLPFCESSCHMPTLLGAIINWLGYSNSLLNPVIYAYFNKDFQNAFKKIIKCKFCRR
The experiment in a line: 5-HT1A receptor antagonism: antagonism of 5-carboxamidotryptamine in the guinea-pig ileum in vitro. The procedure: The compounds are tested for 5-HT1A receptor antagonism activity in a test involving the antagonism of 5-carboxamidotryptamine in the guinea-pig ileum in vitro (based upon the procedure of Fozard et al, Br J Pharmac, 1985, 86, 601P).

SMILES strings stand for the structures.

One may read the IC50 as the midpoint of a concentration-inhibition curve. A lower IC50 goes with greater potency in that assay. With `O=C(C1CCCCC1)N(CCN1CCN(c2cccc3c2OCCO3)CC1)c1ccccn1` [Example 17, N-(2-(1-(4-(2,3-Dihydro-1,4-benzodioxin-5-yl)piperazinyl))ethyl)-N-(2-pyridinyl)cyclohexanecarboxamide], the concentration for half-maximal inhibition (IC50) on 5-HT1A receptor [1] came to 3 nM. In addition, at 5-HT1A receptor [2], the “pA2, 5-HT1A receptor antagonism” value is listed as 9.8.
Regarding `COc1ccccc1N1CCN(CCN(C(=O)NC2CCCCC2)c2ccccn2)CC1` [Example 4, N-Cyclohexyl-N-(2-(1-(4-(2-methoxyphenyl)piperazinyl))ethyl)-N-(2-pyridinyl)urea], at 5-HT1A receptor [1], the concentration for half-maximal inhibition (IC50) came out at 5.8 nM. Moreover, on 5-HT1A receptor [2] (read-out: pA2, 5-HT1A receptor antagonism (converted)), the Kb is 15.8 nM.
